Data on 21 compounds can be found in patent US20260131007A1, “Mannose 6-Phosphate Receptor Binding Compounds for the Degradation of Extracellular Proteins” (Avilar Therapeutics, Inc., priority 2023, published 2026).

Some results are limits rather than exact numbers.

The IC50 is the concentration that inhibits the measured activity by half.

The assay addresses T1, Insulin-like growth factor 2 receptor (IGF-1IR, cation-independent mannose-6-phosphate receptor, CI-MPR; hIGF-IIR) (Homo sapiens, UniProt P11717).
T1 construct: purchased R&D Systems 6418-GR
The assay can be described thus: HTRF-based ternary complex inhibition assay for relative affinity of IGF-IIR ligands. The note with it: competition with MTAC probe for His-tagged hIGF-IIR; biotinylated IgG1; apparent binding affinity; read-out: TCF INH (HTRF) IC50. As to the method:
The apparent binding affinity of Insulin-like growth factor 2 receptor (IGF-1IR, also called the cation- independent mannose-6-phosphate receptor (CI-MPR)) ligands was determined indirectly by competing with a probe molecule for binding to IGF-1IR. The probe is a Mannose 6-Phosphate Ligand (“Ligand”) and binds to hIGF-IIR and IgG1 to form a hIGF-IIR: Ligand: IgG1 ternary complex. The ternary complex was detected by an HTRF readout. The ternary complex is disrupted in the presence of IGF-1IR ligand, resulting in decreased HTRF signal. IGF-1IR ligands of 3-fold dilution series were prepared from 10 mM DMSO stock on a 384-well LDV microplate using Echo Acoustic Liquid Handler (Beckman Coulter Life Sciences) followed by transfer of 600 nL of the solutions to an OptiPlate 384-well microplate (PerkinElmer, 6007290). Manose-6-phosphate (M6P; J&K, 530168) and glucose-6-phosphate (G6P; Sigma, V900924) were prepared from 100 mM stock in the same manner and were used as positive and negative controls, respectively. The wells used as 0% and 100% inhibition controls were prepared by adding 600 nL DMSO. 20 nL of 50 μM MTAC probe was transferred to all wells except the wells used as 100% Inhibition control. 9.4 μL working solution containing 65.1 nM of Biotinylated-IgG1 (Viva 20211108) and 65.1 nM of His-tagged hIGF-IIR (R&D Systems, 6418-GR) in assay buffer 50 mM Tris, pH 7.5, 150 mM NaCl, 50 mM CaCl2, 0.01% Tween-20 was transferred to all wells. The plate was incubated at room temperature for 60 min with gentle shaking to allow molecular interaction to reach equilibration. Following this, 10 μL of HTRF detection solution containing 15 nM Streptavidin-d2 (PerkinElmer, 610SADLA) and 0.7 nM MAb Anti 6HIS—Tb cryptate (PerkinElmer, 61HISTLA) in PPI Terbium detection buffer (PerkinElmer, 61DB10RDF) was added. The assay plate was incubated at room temperature with gentle shaking for 60 min to allow HTRF signal to develop. The plate was gently spun on a centrifuge then placed on a EnVision plate reader (Perkin Elmer, EnVision 2104) to read fluorescence ratio of 665 nm/615 nm. Percent inhibitions were calculated with this equation: % I=100* [1−(X−100% I/(0% I−100% I)] where X is the […] in the presence of IGF-1IR ligand. The apparent binding affinity (presented as IC50) was calculated by fitting the % inhibition data with a non-linear 4-parameter inhibition equation using GraphPad Prism (GraphPad Software, LLC; version 9.4.1).
For orientation: Time-resolved FRET reads energy transfer from a long-lived donor to a nearby acceptor.
For `COc1ccc(OC2O[C@H](CCP(=O)(O)C(O)c3ccccc3)[C@@H](O)[C@H](O)[C@@H]2O)cc1` (stereo partly drawn) [Compound A74, (hydroxy (phenyl)methyl) (2-((2R,3S,4S,5S)-3,4,5-trihydroxy-6-(4-methoxyphenoxy)tetrahydro-2H-pyran-2-yl)ethyl)phosphinic acid], the IC50 is < 10 µM.
In the case of `CS(=N)(=O)CC[C@H]1O[C@H](O)[C@@H](O)[C@@H](O)[C@@H]1O` (stereo partly drawn) [Compound A1, imino(methyl) (2-((2R,3S,4S,5S,6S)-3,4,5,6-tetrahydroxytetrahydro-2H-pyran-2-yl)ethyl)-16-sulfanone] it was < 10 µM.
For `COc1ccc(OC2O[C@H](CCP(=O)(O)CC3=CCCC3)[C@@H](O)[C@H](O)[C@@H]2O)cc1` (stereo partly drawn) [Compound A78, (cyclopent-1-en-1-ylmethyl) (2-((2R,3S,4S,5S)-3,4,5-trihydroxy-6-(4-methoxyphenoxy)tetrahydro-2H-pyran-2-yl)ethyl)phosphinic acid] the value was < 10 µM; for `CC(C)(C)OC(=O)N1CCC(n2cc([C@H]3O[C@H](CCP(=O)(O)O)[C@@H](O)[C@H](O)[C@@H]3O)nn2)CC1` [Compound A85, (2-((2R,3S,4S,5S,6R)-6-(1-(1-(tert-butoxycarbonyl)piperidin-4-yl)-1H-1,2,3-triazol-4-yl)-3,4,5-trihydroxytetrahydro-2H-pyran-2-yl)ethyl)phosphonic acid], < 10 µM; for `COc1ccc(O[C@H]2O[C@H](CCP(=O)(O)Cc3c(F)cccc3Cl)[C@@H](O)[C@H](O)[C@@H]2O)cc1` [Compound A51, (2-chloro-6-fluorobenzyl) (2-((2R,3S,4S,5S,6R)-3,4,5-trihydroxy-6-(4-methoxyphenoxy)tetrahydro-2H-pyran-2-yl)ethyl)phosphinic acid], < 10 µM.
Turning to `CP(=O)(O)CC[C@H]1O[C@H](Oc2ccccc2)[C@@H](O)[C@@H](O)[C@@H]1O` [Compound A44, methyl(2-((2R,3S,4S,5S,6R)-3,4,5-trihydroxy-6-phenoxytetrahydro-2H-pyran-2-yl)ethyl)phosphinic acid], the IC50 fell in the range of 10 to 100 µM.
For `C[Si](C)(C)C#C[C@H]1O[C@H](CCP(=O)(O)O)[C@@H](O)[C@H](O)[C@@H]1O` [Compound A18, (2-((2R,3S,4S,5S,6R)-3,4,5-trihydroxy-6-((trimethylsilyl)ethynyl)tetrahydro-2H-pyran-2-yl)ethyl)phosphonic acid] the value was < 10 µM; for `COc1ccc(OC2O[C@H](CCP(=O)(O)CC3CC3(F)F)[C@@H](O)[C@H](O)[C@@H]2O)cc1` (stereo partly drawn) [Compound A58, ((2,2-difluorocyclopropyl)methyl) (2-((2R,3S,4S,5S)-3,4,5-trihydroxy-6-(4-methoxyphenoxy)tetrahydro-2H-pyran-2-yl)ethyl)phosphinic acid], < 10 µM; for `C#CCP(=O)(O)CC[C@H]1OC(Oc2ccc(OC)cc2)[C@@H](O)[C@@H](O)[C@@H]1O` (stereo partly drawn) [Compound A77, prop-2-yn-1-yl(2-((2R,3S,4S,5S)-3,4,5-trihydroxy-6-(4-methoxyphenoxy)tetrahydro-2H-pyran-2-yl)ethyl)phosphinic acid], 10 to 100 µM.
For `COc1ccc(O[C@H]2O[C@H](CCP(=O)(O)Cc3c(F)cc(F)cc3F)[C@@H](O)[C@H](O)[C@@H]2O)cc1` [Compound A55, (2,4,6-trifluorobenzyl) (2-((2R,3S,4S,5S)-3,4,5-trihydroxy-6-(4-methoxyphenoxy)tetrahydro-2H-pyran-2-yl)ethyl)phosphinic acid] the value was 10 to 100 µM; for `O=P(O)(O)CC[C@H]1OC(c2cc3c(cc2O)Cc2ccccc2-3)[C@@H](O)[C@@H](O)[C@@H]1O` (stereo partly drawn) [Compound A15, (2-((2R,3S,4S,5S)-3,4,5-trihydroxy-6-(2-hydroxy-9H-fluoren-3-yl)tetrahydro-2H-pyran-2-yl)ethyl)phosphonic acid], < 10 µM.
In the case of `CC(=O)N1C[C@@H](O)[C@@H](O)[C@H](O)[C@H]1CCP(=O)(O)O` [Compound A61, (2-((2R,3R,4R,5R)-1-acetyl-3,4,5-trihydroxypiperidin-2-yl)ethyl)phosphonic acid] it was 10 to 100 µM; in that of `C#CCCOC1O[C@H](CCS(=O)(=O)Nc2ncccn2)[C@@H](O)[C@H](O)[C@@H]1O` (stereo partly drawn) [Compound A14, 2-((2R,3S,4S,5S)-6-(but-3-yn-1-yloxy)-3,4,5-trihydroxytetrahydro-2H-pyran-2-yl)-N-(pyrimidin-2-yl)ethane-1-sulfonamide], 100 to 300 µM.
As to `C#CCCCCNC(=O)Nc1ccc2c(c1)Cc1cc(O[C@H]3O[C@H](CCP(=O)(O)O)[C@@H](O)[C@H](O)[C@@H]3O)ccc1-2` [Compound A83, (2-((2R,3S,4S,5S,6R)-6-((7-(3-(hex-5-yn-1-yl)ureido)-9H-fluoren-2-yl)oxy)-3,4,5-trihydroxytetrahydro-2H-pyran-2-yl)ethyl)phosphonic acid], the IC50 is < 10 µM.
In the case of `O=P(O)(O)CC[C@H]1O[C@H](Oc2ccc3c(c2)Cc2cc(O)ccc2-3)[C@@H](O)[C@@H](O)[C@@H]1O` [Compound A22, (2-((2R,3S,4S,5S,6R)-3,4,5-trihydroxy-6-((7-hydroxy-9H-fluoren-2-yl)oxy)tetrahydro-2H-pyran-2-yl)ethyl)phosphonic acid] it was < 10 µM; in that of `COc1ccc(OC2O[C@H](CCP(=O)(O)Cc3ccccc3C#N)[C@@H](O)[C@H](O)[C@@H]2O)cc1` (stereo partly drawn) [Compound A49, (2-cyanophenyl)methyl-[2-[(2R,3S,4S,5S)-3,4,5-trihydroxy-6-(4-methoxyphenoxy)tetrahydropyran-2-yl]ethyl]phosphinic acid], < 10 µM.
In the case of `C#CCOc1cccc(CP(=O)(O)CC[C@H]2OC(Oc3ccc(OC)cc3)[C@@H](O)[C@@H](O)[C@@H]2O)c1` (stereo partly drawn) [Compound A59, (3-prop-2-ynoxyphenyl)methyl-[2-[(2R,3S,4S,5S)-3,4,5-trihydroxy-6-(4-methoxyphenoxy)tetrahydropyran-2-yl]ethyl]phosphinic acid] it was < 10 µM; in that of `COc1ccc(OC2O[C@H](CCP(=O)(O)CC#C[Si](C)(C)C)[C@@H](O)[C@H](O)[C@@H]2O)cc1` (stereo partly drawn) [Compound A75, 2-[(2R,3S,4S,5S)-3,4,5-trihydroxy-6-(4-methoxyphenoxy)tetrahydropyran-2-yl]ethyl-(3-trimethylsilylprop-2-ynyl)phosphinic acid], 10 to 100 µM; in that of `O=P(O)(O)CC[C@H]1O[C@H](Oc2ccc3c(c2)Cc2ccccc2-3)[C@@H](O)[C@@H](O)[C@@H]1O` [Compound A19, (2-((2R,3S,4S,5S,6R)-6-((9H-fluoren-2-yl)oxy)-3,4,5-trihydroxytetrahydro-2H-pyran-2-yl)ethyl)phosphonic acid], < 10 µM.
As to `Nc1ccc2c(c1)Cc1cc(O[C@H]3O[C@H](CCP(=O)(O)O)[C@@H](O)[C@H](O)[C@@H]3O)ccc1-2` [Compound A76, (2-((2R,3S,4S,5S,6R)-6-((7-amino-9H-fluoren-2-yl)oxy)-3,4,5-trihydroxytetrahydro-2H-pyran-2-yl)ethyl)phosphonic acid], the IC50 is < 10 µM.
In the case of `COc1ccc(OC2O[C@H](CCP(=O)(O)CC3CCCC3)[C@@H](O)[C@H](O)[C@@H]2O)cc1` (stereo partly drawn) [Compound A82, (cyclopentylmethyl) (2-((2R,3S,4S,5S)-3,4,5-trihydroxy-6-(4-methoxyphenoxy)tetrahydro-2H-pyran-2-yl)ethyl)phosphinic acid] it was < 10 µM.
